Results from patent publication US8802162B2, “L-citrulline for treating endothelial dysfunction and erectile dysfunction” (Androsystems S.R.L., priority 2008, dated 2014).

Key:
[1] = Urinary excretion of nitrates, randomized prospective study in erectile dysfunction patients; assay type: in vivo; conditions: for Urinary excretion of nitrates, baseline: before administration; for Urinary excretion of nitrates, after administration: oral, L-citrulline 6 grams/day or L-arginine 3 grams/day, 7 days after beginning of administration
Experimental: (§1) The effectiveness of the administration of L-citrulline in the treatment of erectile dysfunction has been verified by conducting a randomized prospective study on 20 patients, during which L-citrulline was administered orally with a dosage of 6 grams/day, in two separate 3-gram doses, to patients affected by erectile dysfunction.
(§2) The effects of the administration were then tested at the biochemical level by studying the following parameters:
3. urinary excretion of nitrates;
(§3) The data related to the above cited biochemical parameters were acquired for patients subjected to the test 7 days after the beginning of the administration of the drug and are shown below in Table 1, Table 2, Table 3 and Table 4.

[2] = Urinary excretion of cGMP, randomized prospective study in erectile dysfunction patients; assay type: in vivo; conditions: for Urinary excretion of cGMP, baseline: before administration; for Urinary excretion of cGMP, after administration: oral, L-citrulline 6 grams/day or L-arginine 3 grams/day, 7 days after beginning of administration
Experimental: as §1, §2
4. urinary excretion of cGMP.
as §3

[3] = Plasma levels of L-arginine after oral administration, randomized prospective study in erectile dysfunction patients; assay type: in vivo; conditions: in words
Experimental: as §1, §2, §3

[4] = Blood L-arginine/ADMA ratio, randomized prospective study in erectile dysfunction patients; assay type: in vivo
Experimental: as §1, §2, §3

erectile dysfunction = experiment: Erectile function assessment card (IIF-5 questionnaire); assay type: in vivo, patients; conditions: oral 6 grams/day, in words
Experimental: as §1
(§4) Moreover, the effects at the clinical level were also tested by administering the “Erectile function assessment card” (IIF-5 questionnaire) to the patients and by measuring flow-mediated vasodilation of the cavernous arteries before and after therapy.

cavernous arteries = experiment: Flow-mediated vasodilation of the cavernous arteries before and after therapy; assay type: in vivo, patients; conditions: oral 6 grams/day, before vs after therapy, in words
Experimental: as §1, §4

| Compound | Urinary excretion of nitrates, baseline [1] | Urinary excretion of nitrates, after administration [1] | Urinary excretion of cGMP, baseline [2] | Urinary excretion of cGMP, after administration [2] | Plasma half-life of L-arginine with respect to administration of L-arginine [3] | Plasma levels of arginine with respect to administration of L-arginine [3] | L-arginine/ADMA ratio, baseline ([4]; baseline, before administration) | L-arginine/ADMA ratio, after administration ([4]; oral, L-citrulline 6 grams/day or L-arginine 3 grams/day, 7 days after beginning of administration) | Excretion of nitrates with respect to administration of L-arginine ([1]; oral administration, in words) | Excretion of cGMP with respect to administration of L-arginine ([2]; oral administration, in words) | IIF-5 questionnaire, components related to achieving and maintaining erection (erectile dysfunction) | Increase in flow-mediated vasodilation at the level of the cavernous arteries (cavernous arteries) |
| --- | --- | --- | --- | --- | --- | --- | --- | --- | --- | --- | --- | --- |
| N=C(N)NCCC[C@H](N)C(=O)O [L-arginine, reference compound] | 91 ± 10 nmol/mmol creatinine | 93 ± 12 nmol/mmol creatinine | 38 ± 3.1 nmol/mmol creatinine | 39 ± 4.5 nmol/mmol creatinine |  |  |  |  |  |  |  |  |
| NC(=O)NCCC[C@H](N)C(=O)O [L-citrulline] | 89 ± 9 nmol/mmol creatinine | 133 ± 16 nmol/mmol creatinine | 40 ± 2.8 nmol/mmol creatinine | 55 ± 3.8 nmol/mmol creatinine | statistically longer | statistically higher | 183 ± 8 | 290 ± 15 | higher excretion | higher excretion | leads to a modification of the IIF-5 questionnaire | statistically higher increase |
